These results are taken from US20080280878A1, “Methods and Compositions for Treating Chronic Lymphocytic Leukemia” (priority 2004, published 2008).

The subject of one data set is ZAP70− CLL B cells. The data set is described as follows: Viability (100%-% apoptotic cells) by DiOC6 and propidium iodide staining. The note with it: Homo sapiens, B-cell, 48 h, read-out: average % viability.
The subject of data set [1] is ZAP70 in ZAP70+ CLL B cells. The data set is described as follows: ZAP70 protein expression by indirect immunofluorescence and FACS analysis. In kind it is cell-based, human. Particulars: ZAP70+ CLL B cells of one patient, 24 hours at 37° C.
Method: Levels of ZAP70 protein expression were measured by indirect immunofluorescence of permeabilized cells with specific anti-ZAP70 antibodies and FACS analysis.
For data set [2], the system named is ZAP70 in CLL B cells (CD3−, ZAP70+). The data set is described as follows: Two-color flow cytometry of ZAP70 expression in white blood cells of a ZAP70+ CLL patient: CLL B cells. In kind it is cell-based, human. The note with it: 300 nM, 24 hours at 37° C., untreated 85%. The procedure:
(§1) The upper right quadrant were normal T-cells (CD3+, ZAP70+) the lower right quadrant were (CD3−, ZAP70+); the upper left quadrant is CD3+, ZAP70−; and the lower left quadrant is CD3−, ZAP70−.
(§2) (right panel). Levels of ZAP70 protein expression were measured by two color indirect immunofluorescence with specific anti-CD3 antibodies conjugated to phycoerytirin and anti-ZAP70 antibodies conjugated to Alexa-488 dye and analyzed by flow cytometry. CD3 is a specific marker of T cells. […] As shown in the untreated cells (left panel), approximately 5% of the cells were normal T-cells (CD3+, ZAP70+, upper right quadrant) and ˜85% of the cells were ZAP70+ CLL B cells (CD3−, ZAP70+, lower right quadrant). […] This is important because B-CLL patients are chronically immunosuppressed by their disease, so avoidance of effects on normal T-cell function performed by ZAP70 is clearly beneficial.
(§3) The samples were than prepared for flow cytometry analysis by a method described in Rassebti et al. supra. […] Levels of ZAP70 protein expression were measured by flow cytometry (FACSCalibur, BD Biosciences) and Flow-Jo software, version 2.7.4 (Tree Star).
(In flow cytometry, cells or beads pass a laser one at a time.)

The conditions of data set [3]: cited from earlier work.
For data set [4], the system named is ZAP70 in normal T-cells (CD3+, ZAP70+). The data set is described as follows: Two-color flow cytometry of ZAP70 expression in white blood cells of a ZAP70+ CLL patient: normal T-cells. In kind it is cell-based, human. The note with it: 300 nM, 24 hours at 37° C., untreated 4.5%. The procedure: as §1, §2, §3
Data set [5] is described as follows: Solvent stability of low melt form: slurrying in H2O:EtOH (90:10). The note with it: slurry in H2O:EtOH (90:10). It is filed as physicochemical. The procedure:
17-AAG may be prepared from geldanamycin by reacting with allyamine in dry THF under a nitrogen atmosphere. The crude product may be purified by slurrying in H2O:EtOH (90:10), and the washed crystals obtained have a melting point of 206-212° C. by capillary melting point technique. […] The two 17-AAG products are designated as the low melt form and high melt form.
MP=147-175° C. ^1H NMR and HPLC are consistent with the desired product.

SMILES strings stand for the structures. pIC50: −log10 of the molar value. Several values for one entry are separate records, joined by “and”; a condition that tells them apart may be missing. Equal values may be shown once.

By viability is commonly meant a read-out of living cells in per cent, often relative to untreated cells. One may read the clearance as a measure of how efficiently the substance is removed, as volume per time. For orientation: Cmax means the maximum level reached in the sampled fluid or tissue. For the molecule `C=CCNC1=C2CC(C)CC(OC)C(O)C(C)/C=C(\C)C(OC(N)=O)C(OC)/C=C\C=C(/C)C(=O)NC(=CC1=O)C2=O` (stereo not drawn) [Compound 17-AAG, 17-allylamino-17-demethoxygeldanamycin], in the data set with ZAP70− CLL B cells, the viability at 0.1 µM was 93%. In addition, the “degradation of ZAP70” value in data set [1] is listed as “dose-dependently induced degradation of ZAP70”. In addition, the average % viability in the data set on ZAP70+ CLL B cells (0.1 µM) was 45.74+/−3.177%. For the same molecule, the “time to reach 50% cell mortality” value in the data set on ZAP70+ CLL B cells (100 nM, 37° C., cells of one ZAP70+ patient) was “approximately 48 hours”. In addition, the pIC50 in the data set on ZAP70+ CLL B cells (read-out: 50% inhibitory concentration (IC50), cell killing, 48 hours at 37° C., cells of one ZAP70+ patient) was around 7.10. Moreover, the “% positive cells (ZAP70) after treatment” value is reported as 34% in data set [2] and 4.2% in data set [4]. In addition, the “maximum tolerated dose (MTD)” value in data set [3] (daily 1-hour infusion for 5 days every three weeks) is 40 mg/m^2. Moreover, in data set [3] (human, in vivo), the clearance was 41.0 ± 13.5 L/h. In addition, the terminal half-life in data set [3] (human, in vivo) is 2.5 ± 0.5 h. Further, the Cmax in data set [3] (read-out: Plasma Cmax, human, in vivo) was 1860 nM and 3170 nM.

In the case of `C=CCNC1=C2C[C@@H](C)C[C@H](OC)[C@H](O)[C@@H](C)/C=C(\C)[C@H](OC(N)=O)[C@@H](OC)/C=C\C=C(/C)C(=O)NC(=CC1=O)C2=O` [low melt form, 17-allylamino-17-demethoxygeldanamycin], the “stability of the low melt form (conversion to high melt form)” value in data set [5] is listed as “no conversion to the high melt form was observed”.
